# In patent publication US20240254143A1, “OREXIN RECEPTOR AGONISTS AND USES THEREOF” (JAZZ PHARMACEUTICALS IRELAND LIMITED, priority 2021, published 2024):
# Molecular target: T1, human recombinant OX2 (hOX2) receptor (Homo sapiens, UniProt O43614)
# T1 construct: host or cells: CHO cells
# T1 sequence (O43614 1-444): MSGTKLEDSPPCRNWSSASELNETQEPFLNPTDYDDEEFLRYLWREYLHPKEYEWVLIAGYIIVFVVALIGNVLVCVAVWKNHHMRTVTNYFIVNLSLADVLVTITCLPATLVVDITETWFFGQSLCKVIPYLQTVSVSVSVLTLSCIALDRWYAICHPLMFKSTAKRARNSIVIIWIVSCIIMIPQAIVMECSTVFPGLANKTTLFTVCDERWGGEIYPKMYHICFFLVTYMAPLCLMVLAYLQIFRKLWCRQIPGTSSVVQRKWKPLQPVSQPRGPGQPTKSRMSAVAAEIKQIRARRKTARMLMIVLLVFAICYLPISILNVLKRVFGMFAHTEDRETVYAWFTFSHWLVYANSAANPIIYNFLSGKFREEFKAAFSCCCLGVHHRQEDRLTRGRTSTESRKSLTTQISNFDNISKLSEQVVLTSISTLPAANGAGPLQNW
# Test: IP-1 accumulation assay (IP-One HTRF) in hOX2-CHO cells
# Format: cell-based
# Details: 60 min at 37° C., mean of at least two independent experiments, read-out: EC50_OX2R Category
# Method in brief: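 hOX2 receptor expressed in CHO cells, seeded in suspension in HBSS with 20 mM HEPES pH 7.4, LiCl and 0.1% BSA; compounds tested as 11-point CRC (0.5% DMSO final), 60 min at 37 °C. IP-1 read by HTRF (665/615 ratio) after 60 min lysis at room temperature; response as % of maximal OX-A response, EC50 by four-parameter logistic fit, mean of ≥2 experiments in duplicate.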
row,SMILES,EC50 [nM]
1,"CCNC(=O)N1CCC2(COC(=O)N2)C1CO[C@H]1CC[C@@H](c2ccccc2)CC1 (mixture of isomers) [Example 18, (CIS)-N-ethyl-2-oxo-6-({[(CIS)-4-phenylcyclohexyl]oxy}methyl)-3-oxa-1,7-diazaspiro[4.4]nonane-7-carboxamide]",> 10000
2,"COC(=O)N1CCCC2(COCC(=O)N2)C1CO[C@H]1CC[C@@H](c2ccccc2)CC1 (mixture of isomers) [Example 4, Methyl (CIS)-2-oxo-7-({[(CIS)-4-phenylcyclohexyl]oxy}methyl)-4-oxa-1,8-diazaspiro[5.5]undecane-8-carboxylate]",1000 to 10000
3,"CCNC(=O)N1CCC[C@]2(CCOC(=O)N2)[C@H]1CO[C@H]1CC[C@@H](c2ccccc2)CC1 (single isomer, unassigned) [Example 13]",> 10000
4,"C[C@@H]1C[C@@]2(COCC(=O)N2)[C@H](CO[C@H]2CC[C@@H](c3ccccc3)CC2)N1C(=O)C(C)(C)O [Example 49, (1R,3R,5S)-2-(2-hydroxy-2-methylpropanoyl)-3-methyl-1-({[(CIS)-4-phenylcyclohexyl]oxy}methyl)-9-oxa-2,6-diazaspiro[4.5]decan-7-one]",1000 to 10000
5,"CCNC(=O)N1CCC[C@@]2(CNS(=O)(=O)N2)[C@@H]1Cc1cccc(-c2ccccc2)c1 (racemic) [Example 30, (CIS)-6-({[1,1′-biphenyl]-3-yl}methyl)-N-ethyl-2,2-dioxo-2λ^6-thia-1,3,7-triazaspiro[4.5]decane-7-carboxamide]",> 10000
6,"CCNC(=O)N1CCC2(COCC(=O)N2)C1CO[C@H]1CC[C@@H](c2ccccc2)CC1 (mixture of isomers) [Example 15, (CIS)-N-ethyl-7-oxo-1-({[(CIS)-4-phenylcyclohexyl]oxy}methyl)-9-oxa-2,6-diazaspiro[4.5]decane-2-carboxamide]",1000 to 10000
7,"CCNC(=O)N1CCC[C@]2(CNS(=O)(=O)N2)[C@H]1Cc1cccc(-c2ccccc2)c1 (single isomer, unassigned) [Example 32]",> 10000
8,"COC(=O)N1CCC[C@@]2(COC(=O)N2)[C@@H]1Cc1cccc(-c2ccccc2)c1 [Example 29, Methyl (5S,6S)-6-({[1,1′-biphenyl]-3-yl}methyl)-2-oxo-3-oxa-1,7-diazaspiro[4.5]decane-7-carboxylate]",> 10000
9,"C[C@@H]1C[C@@]2(COCC(=O)N2)[C@H](CO[C@H]2CC[C@@H](c3ccccc3)CC2)N1C(=O)N1CC(F)(F)C1 [Example 52, (1R,3R,5S)-2-(3,3-difluoroazetidine-1-carbonyl)-3-methyl-1-({[(CIS)-4-phenylcyclohexyl]oxy}methyl)-9-oxa-2,6-diazaspiro[4.5]decan-7-one]",1000 to 10000

# Results, then the compound that gave them:
row,EC50 [nM],SMILES
1,1000 to 10000,"O=C1COCC2(CCCN(C(=O)OCC(F)F)C2COC2CCN(c3ncc(F)cn3)CC2)N1 (racemic) [Example 77, 2,2-difluoroethyl-rel-(6S,7R)-7-({[1-(5-fluoropyrimidin-2-yl)piperidin-4-yl]oxy}methyl)-2-oxo-4-oxa-1,8-diazaspiro[5.5]undecane-8-carboxylate]"
2,100 to 1000,"O=C1COC[C@@]2(CCN(C(=O)[C@H]3C[C@@H](F)C3)[C@H]2Cc2cccc(-c3cc(F)cc(F)c3)c2F)N1 (single isomer, unassigned) [Example 72]"
3,< 100,"CCNC(=O)N1CCCC2(COC(F)C(=O)N2)C1CO[C@H]1CC[C@@H](c2ccccc2)CC1 (relative stereo) [Example 41, rel-(6S,7R)-N-ethyl-3-fluoro-2-oxo-7-({[(CIS)-4-phenylcyclohexyl]oxy}methyl)-4-oxa-1,8-diazaspiro[5.5] undecane-8-carboxamide]"
4,< 100,"CCNC(=O)N1CCC[C@@]2(COCC(=O)N2)[C@@H]1CO[C@H]1CC[C@@H](c2ccccc2)CC1 (single isomer, unassigned) [Example 3]"
5,100 to 1000,"CCN(C)C(=O)N1[C@H](C)C[C@@]2(COCC(=O)N2)[C@@H]1Cc1cccc(-c2cc(F)cc(F)c2)c1F [Example 87, (1S,3R,5S)-N-ethyl-N,3-dimethyl-7-oxo-1-({2,3′,5′-trifluoro-[1,1′-biphenyl]-3-yl}methyl)-9-oxa-2,6-diazaspiro[4.5]decane-2-carboxamide]"
6,100 to 1000,"C[C@@H]1C[C@@]2(COCC(=O)N2)[C@H](Cc2cccc(-c3cc(F)cc(F)c3)c2F)N1C(=O)[C@H]1CCO1 [Example 89, (1S,3R,5S)-3-methyl-2-[(2R)-oxetane-2-carbonyl]-1-({2,3′,5′-trifluoro-[1,1′-biphenyl]-3-yl}methyl)-9-oxa-2,6-diazaspiro[4.5]decan-7-one]"
7,100 to 1000,"C[C@@H]1C[C@@]2(COCC(=O)N2)[C@H](Cc2cccc(-c3cc(F)cc(F)c3)c2F)N1C(=O)C1CC1F (single isomer, unassigned) [Example 90]"
8,< 100,"C[C@@H]1C[C@@]2(COCC(=O)N2)[C@H](CO[C@H]2CC[C@@H](c3ccccc3)CC2)N1C(=O)NCC(F)(F)F [Example 62, (1R,3R,5S)-3-methyl-7-oxo-1-({[(CIS)-4-phenylcyclohexyl]oxy}methyl)-N-(2,2,2-trifluoroethyl)-9-oxa-2,6-diazaspiro[4.5]decane-2-carboxamide]"
9,< 100,"C[C@@H]1C[C@@]2(COCC(=O)N2)[C@H](CO[C@H]2CC[C@@H](c3ccccc3)CC2)N1C(=O)C1CCC1 [Example 58, (1R,3R,5S)-2-cyclobutanecarbonyl-3-methyl-1-({[(CIS)-4-phenylcyclohexyl]oxy}methyl)-9-oxa-2,6-diazaspiro [4.5]decan-7-one]"
